Experimental findings from publication PMC3579927, “Identification of a Small Molecule That Selectively Inhibits Mouse PC2 over Mouse PC1/3: A Computational and Experimental Study” (PLoS ONE, 2013) are described below.

What all share (format): biochemical
Test [1] deals with T1, prohormone convertase 2 (PC2) (Mus musculus, UniProt P21661).
T1 construct: gene Pcsk2; Recombinant PC2
T1 sequence (P21661 109-637): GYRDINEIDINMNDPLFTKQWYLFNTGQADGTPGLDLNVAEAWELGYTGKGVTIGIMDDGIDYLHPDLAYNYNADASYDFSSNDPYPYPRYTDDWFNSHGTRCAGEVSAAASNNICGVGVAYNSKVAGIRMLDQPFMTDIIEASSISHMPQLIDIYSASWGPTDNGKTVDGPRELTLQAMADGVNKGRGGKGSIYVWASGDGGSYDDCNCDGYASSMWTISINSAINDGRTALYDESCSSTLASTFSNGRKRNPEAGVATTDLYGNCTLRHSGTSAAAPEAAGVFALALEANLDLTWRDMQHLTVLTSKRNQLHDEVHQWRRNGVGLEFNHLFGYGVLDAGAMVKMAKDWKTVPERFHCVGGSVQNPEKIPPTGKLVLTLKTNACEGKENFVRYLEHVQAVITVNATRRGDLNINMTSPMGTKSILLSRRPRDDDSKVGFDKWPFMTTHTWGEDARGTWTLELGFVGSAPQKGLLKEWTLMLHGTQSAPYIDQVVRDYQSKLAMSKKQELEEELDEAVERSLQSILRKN
In words: fluorogenic enzyme assay with pERTKR-amc, […] inhibition at […] and […] at […].

For test [2], the target named is T2, prohormone convertase 1/3 (PC1/3) (Mus musculus, UniProt P63239).
T2 construct: gene Pcsk1
T2 sequence (P63239 111-753): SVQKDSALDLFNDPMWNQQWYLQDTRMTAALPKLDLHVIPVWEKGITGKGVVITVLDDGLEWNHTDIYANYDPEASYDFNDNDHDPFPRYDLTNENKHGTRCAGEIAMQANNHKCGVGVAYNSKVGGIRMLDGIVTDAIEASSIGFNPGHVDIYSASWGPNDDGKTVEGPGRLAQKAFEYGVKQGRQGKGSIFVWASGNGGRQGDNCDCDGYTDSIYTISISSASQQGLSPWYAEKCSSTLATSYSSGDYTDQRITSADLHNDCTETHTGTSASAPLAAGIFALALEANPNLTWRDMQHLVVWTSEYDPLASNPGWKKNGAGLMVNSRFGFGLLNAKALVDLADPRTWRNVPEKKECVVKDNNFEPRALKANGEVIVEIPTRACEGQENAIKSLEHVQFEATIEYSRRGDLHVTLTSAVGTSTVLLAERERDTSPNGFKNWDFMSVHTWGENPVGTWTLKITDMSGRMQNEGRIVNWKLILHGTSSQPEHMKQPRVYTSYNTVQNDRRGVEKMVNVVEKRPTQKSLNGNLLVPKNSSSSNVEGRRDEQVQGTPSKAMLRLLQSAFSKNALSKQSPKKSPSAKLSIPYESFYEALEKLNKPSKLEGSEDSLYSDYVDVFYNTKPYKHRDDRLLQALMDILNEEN
In words: enzyme assay, stimulation of activity at […].

For test [3], the target named is T1, prohormone convertase 2 (PC2). As to the kind of experiment: fluorogenic enzyme assay, stimulation of activity at […]. The note with it: read-out: % inhibition at 50 μM (negative = stimulation).
For test [4] the target is unchanged. In words: fluorogenic enzyme assay with pERTKR-amc, IC50 and inhibition kinetics.

The term inhibition denotes the relative decrease from the control value, in per cent. Turning to `CCOC(=O)C(=CN/N=c1/cc[nH]c2cc(Cl)ccc12)C(=O)OCC` [BTB03195], the inhibition at 50 µM in test [1] was 71%; in test [2], -41%.

Take `NCCCN=c1ccc2c3c1c(O)c1c(O)ccc(=O)c1c3[nH]n2CCNCCO` [JFD02062]: the inhibition at 50 µM in test [3] is -60%.

As usually defined, the Ki is the dissociation constant of the complex between target and ligand, obtained from inhibition or displacement. `OC[C@@H](O)[C@H](O)[C@H](O)[C@@H](O)[C@@H]1NCCS1` [RJC00847]: the affinity in test [4], expressed as Ki, was 690 ± 80 nM.
